This note sets out measurements from US4520022A, “Substituted vinyl cephalosporins” (priority 1983, dated 1985).

Values after ≈ are worked out from the molar mass of the structure shown. Read-outs that look alike come from different tables or passages of the source.

One data set concerns S. aureus Smith. Description: Protective dose, mice infected with lethal inoculum, oral treatment, S. aureus Smith. It is filed as in vivo. As to conditions: Staphylococcus aureus, po, 120 h, oral; 50% survival for 5 days; groups of 5 mice; read-out: Protective dose (PD50), S. aureus Smith.
For another data set, the system named is E. coli Juhl. Description: Protective dose, mice infected with lethal inoculum, oral treatment, E. coli Juhl. It is filed as in vivo.
Data set [1] in a line: Metabolism in the rat (urine after oral administration). It is filed as in vivo, Wister rats. As to conditions: oral 100 mg/kg; urine 24 hours. The procedure: Refer to Procedure 43. Compound No. 37 is the 3,4-dihydroxyphenyl compound and Compound No. 42 is the 3-methoxy-4-hydroxyphenyl compound.
Six male Wister rats (400-600 g) were placed in steel metabolic cages after the oral administration of Compound 37 at the dose of 100 mg/kg and urine was collected over a period of 24 hours. The rats were fed their regular diet and given water during the experiment.
The urine (ca. 90 ml) was adjusted to pH 3 with N hydrochloric acid and filtered to remove a precipitate. The filtrate was chromatographed on a column packed with 300 ml of HP-20 by eluting with 2 L of water and 2 L of 30% methanol under monitoring the HPLC. The fractions containing the bioactive components of the 30% methanol eluate were collected, concentrated to 10 ml and lyophilized to give 390 mg of brown solid. A solution of the solid in 20 ml of water was chromatographed on a column packed with 200 ml of the packing of a prepPAK-C18 cartridge (Waters) by eluting with water, 5% methanol, and 10% methanol, successively. The first half of the 5% methanol eluate was concentrated to 5 ml and lyophilized to give 44 mg of Compound 37 (70% pure) containing impurities derived from urine. The second half of the 5% methanol eluate was concentrated to 5 ml and lyophilized to give 36 mg of product, which was a mixture of Compound 37, Compound 42, and impurities derived from urine. […]

The subject of another data set is bacteria. The experiment in a line: Antibacterial activity, general statements. As to conditions: in words.
For data set [2] the following is noted: mouse, in vivo, po.
A further data set in a line: in vivo. Particulars: mouse; for half-life: T1/2.
The subject of data set [3] is Gp Ib: S. aureus 193, BX-1633-2 A9606, A15092, Russell, A9602. As to conditions: Staphylococcus aureus.
Data set [4] deals with Gp Ia: S. aureus Smith A9537, A9497, Terajima, A9534, A9601. As to conditions: Staphylococcus aureus.

As a reminder, the AUC is concentration integrated over time. The low end stands for less exposure, the high end for more exposure. Usually Cmax stands for the maximum level reached in the sampled fluid or tissue. A word on the half-life: it is the time needed for the level to fall by half in the phase considered. For the compound `C/C=C\C1=C(C(=O)O)N2C(=O)[C@@H](NC(=O)[C@H](N)c3ccc(O)c(O)c3)[C@H]2SC1` [Compound 37, 7β-[D(-)-2-Amino-2-(3,4-dihydroxyphenyl)acetamido]-3-[(Z)-1-propen-1-yl]-3-cephem-4-carboxylic Acid], the ED50 in the data set on S. aureus Smith stood at 0.13 mg/kg; in the data set with E. coli Juhl (Escherichia coli, po, 120 h, oral, 50% survival for 5 days, groups of 5 mice, read-out: Protective dose (PD50), E. coli Juhl), 0.44 mg/kg. Also, in the data set on E. coli Juhl (in words), the “activity against the Gram- infection” value is “more active against the Gram- infection”. Also, the “metabolism in the rat” value in data set [1] is “metabolized in the rat to Compound No. 42”. Moreover, in the data set with bacteria, the antibacterial activity entry is “highly active substance against both the Gram+ and Gram- bacteria”. Besides, in data set [2], the “blood levels following oral administration” value is on record as “exceptionally high blood levels”. The AUC in “in vivo” (im, 20 mg/kg, AUC*) came to 233 µg·h/mL; in “in vivo” (po, 20 mg/kg, AUC*), 270 µg·h/mL; in “in vivo” (po, 100 mg/kg, AUC), 666 µg·h/mL. The Cmax was 86 µg/mL in the data set “in vivo” (im, 20 mg/kg); 58 µg/mL in “in vivo” (po, 20 mg/kg); 180 µg/mL in “in vivo” (po, 100 mg/kg). In addition, the half-life in “in vivo” (im, 20 mg/kg) is 1.2 h; in the data set “in vivo” (po, 20 mg/kg), 5.1 h; in the data set “in vivo” (po, 100 mg/kg), 2.5 h. In addition, the MIC in data set [3] (read-out: Minimum Inhibitory Concentration Gp Ib, Mueller-Hinton agar, run 2, average of five organisms) is 7.2 µg/mL (≈ 17.8 µM); in data set [3] (read-out: Minimum inhibitory Concentration Gp Ib, Test Medium Comparison, A: Mueller-Hinton agar, average values) it was 6.3 µg/mL (≈ 15.5 µM); in data set [3] (read-out: Minimum inhibitory Concentration Gp Ib, Test Medium Comparison, B: Nutrient agar, average values), 0.61 µg/mL (≈ 1.5 µM); in data set [4] (read-out: Minimum Inhibitory Concentration Gp Ia, Mueller-Hinton agar, run 2, average of five organisms) it was 6.3 µg/mL (≈ 15.5 µM); in data set [4] (read-out: Minimum inhibitory Concentration Gp Ia, Test Medium Comparison, A: Mueller-Hinton agar, average values), 4.8 µg/mL (≈ 11.8 µM); in data set [4] (read-out: Minimum inhibitory Concentration Gp Ia, Test Medium Comparison, B: Nutrient agar, average values), 0.4 µg/mL (≈ 0.987 µM).
